One assay has as its target 20S proteasome (Homo sapiens, UniProt P28072+P28074). Briefly: Native gel analysis of proteasomal complexes, Suc-LLVY-AMC substrate overlay. As to conditions: control cells, 12 nM, 24 hours. The format is biochemical. The text has this: FIGS. 2A-2F: Reducing expression of 19S subunits increases the levels of active 20S proteasomes and protects cancer cells from proteasome (FIG. 2A) HepG2 cells were infected with 80 shRNAs targeting 20 different subunits of the proteasome and 10 control shRNAs. Infected cells were then exposed to […] bortezomib and cell number was examined 4 days later. The plot represents the average (+/−SEM) of four different hairpins targeting the indicated proteasome subunits and their relative cell number following bortezomib treatment. 19S subunits are depicted with orange bars, the control with a blue bar and 20S subunits with green bars. […] (FIG. 2C) The relative cell number of cells harboring a control shLacZ or each of 4 individual shRNAs targeting shPSMD2 was analyzed 4 days after addition of the indicated concentrations of bortezomib. (FIG. 2D) HepG2 cells stably expressing four different shRNAs targeting the PSMD2 subunit and a control shRNA (lacZ) were analyzed by western blot for the indicated proteins 24 hours with or without bortezomib treatment. […] Proteasome complex levels were detected by immunoblot analysis and 20S proteasome activity by measuring the hydrolysis of Suc-LLVY-AMC by substrate overlay assays. * p<0.05 **p<0.01. […]

In a further assay the target is T1, FDX1 (Homo sapiens, UniProt P10109).
T1 construct: made in house
T1 sequence (P10109 62-184): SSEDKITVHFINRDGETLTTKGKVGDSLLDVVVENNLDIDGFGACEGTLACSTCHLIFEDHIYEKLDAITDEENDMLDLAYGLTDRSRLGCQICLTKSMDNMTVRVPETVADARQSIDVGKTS
Briefly: In vitro Fe-S cluster assembly assay with reduced FDX1. The format is biochemical. As to conditions: reduced FDX1 as reductant; 5x and 10x stoichiometry relative to ISCU and FDX1. The source says:
Whether elesclomol can inhibit the functional activity of FDX1 in mediating the Fe—S cluster formation was also examined. […] (FIG. 47A) A “x5 concentration” as shown in FIGS. 47A-47C means that elesclomol (or isoform) was present at 5 times the concentration of the enzyme. The assay used in FIGS. 47A-47C is described in the paper Cai et al., Biochemistry, 2017, 56 (3), pp 487-499.
Fe—S clusters are generated from sulfur extracted from cysteine by the iron sulfur-cluster (ISC) core complex (NFS1-ISD11-Acp-ISCU)2 and iron. A reductant (FDX1 or FDX2) is required for Fc-S cluster biosynthesis (Lill and Muhlenhoff, 2006; Py and Barras, 2010) (FIG. 53A). […]
Protein Expression and Purification—Unlabeled samples of ISCU, unlabeled (NFS1-ISD11-Acp)2 (abbreviated as SDA), unlabeled and [U-^15N]-FDX1 (truncated first 61 amino acids) and unlabeled FDX2 were produced and purified as described previously (Cai et al., 2013; Cai et al., 2017a; Cai et al., 20176). […] The reduction of FDX1 or FDX2 was monitored by the color change from dark brown to light pink and by recording IN/vis spectra before and after reduction. […]
In vitro Fe—S cluster assembly assay—The in vitro Fe—S cluster assembly assays were carried out as follows. […] The growth of absorbance at 456 nm was used to monitor the assembly of [2Fe-2S] clusters.

“Also recorded” adds a separate entry of the source.

`CC(C)C[C@H](NC(=O)[C@H](Cc1ccccc1)NC(=O)c1cnccn1)B(O)O` [bortezomib]: on 20S proteasome, the 20S proteasome function entry is “nearly complete inactivation”. For the compound `CN(NC(=O)CC(=O)NN(C)C(=S)c1ccccc1)C(=S)c1ccccc1` [elesclomol], on FDX1, the “inhibition of in vitro Fe-S cluster assembly” value is listed as “sufficient to induce an inhibitory effect; also recorded: progressively inhibited”.

These data come from patent US20180353445A1, “METHODS AND COMPOSITIONS RELATING TO PROTEASOME INHIBITOR RESISTANCE” (Whitehead Institute for Biomedical Research, priority 2017, published 2018).
